Experimental data from patent US20160193240A1, “Ulmoside-A: Useful For Prevention Or Cure Of Metabolic Diseases” (COUNCIL OF SCIENTIFIC & INDUSTRIAL RESEARCH, priority 2013, published 2016).

Tests used:
AdipoRs = assay: Competitive radio-ligand binding assay with 125I-adiponectin on C2C12 myotubes; set-up: species or system mouse; conditions: 10^-11 M to 10^-6 M unlabeled ULMA, 12 hours, 4° C.
Protocol: C. ULMA competes with ^125I-globular adiponectin (gAd) for binding to AdipoRs. C2C12 myotubes in 12 well plates were incubated with 2 μl of 10 uCi/ml ^125I-adiponectin (this amount gives 50% binding to the cells) in ice-cold PBS and 0.1% bovine serum albumin for 12 h in presence or absence of different doses of unlabeled ULMA (10^−11M, 10^−10 M, 10^−9 M, 10^−8 M, 10^−7M, 10^−6M) at 4° C. The cells were then washed 20 times in PBS and then lysed. 5 μl of the lysate was used for protein estimation using standard Bradford assay and rest of the lysate was used for measuring radioactivity in a gamma-counter (Cole Palmer). The count per minute was normalized with protein concentration and plotted as % binding compared to wells treated with vehicle only (0.1% vol/vol DMSO). Data represents mean±SEM from three experiments performed in triplicates.
Competitive Radio-Ligand Binding Assay
Further validation of AdipoR-ULMA interaction was obtained using a competitive radio-ligand binding assay. […] 5 μl of the lysate was used for protein estimation using standard Bradford assay and rest of the lysate was used for measuring radioactivity in a gamma-counter (Cole Palmer). […]

wistar rats = assay: Dexamethasone mediated cardiac hypertrophy in rats (heart weight/body weight ratio); assay type: in vivo, rat
Protocol: Following 15 d treatment with indicated compounds or vehicle, animals were euthanized and heart weight and body weight were measured and heart weight/body weight ratio were calculated and plotted. Data represents mean+/−SEM. N=6. *p<0.05 as determined by student's t-test.
Blood was collected from cardiac punctures.
Therefore, the heart weight/body weight ratio was measured in these rats (described in Example 6A-C).

GAL-PPARα = assay: PPARα activation assay (GAL-PPARα / GAL4-Luc reporter) in HEK293 cells expressing endogenous AdipoR1; assay type: cell-based, human
Protocol: A. ULMA enhances PPARα ligand activity; HEK293 cells were seeded on to 24 well plates and after 24 h, transfected with 100 ng of GAL-PPARα and 100 ng GAL4-Luc along with 100 ng eGFPC1 (Clontech) plasmids using lipofectamine LTX (Invitrogen) according to manufacturer's instructions. 24 h after transfection, cells were treated with or without 100 pM GW-7647 alone or in combination with 100 nM ULMA or 1 μg/ml globular adiponectin (gAd) for 6 h. Following which, the cells were lysed and GFP fluorescence and firefly luciferase activities were measured. Luciferase activity was normalized with GFP fluorescence and plotted as fold activity over vehicle (0.1% DMSO) treated control. Data shown in mean±SEM of three independent experiments performed in duplicates. *p<0.05 as determined by two tailed unpaired student's t-test.
The potential of ULMA to activate adiponectin receptor signaling was evaluated using a PPARα activation assay. […] 24 hours following plating, these cells were transfected with 100 ng of GAL-PPARα (PPARα cDNA fused with GAL4 DNA binding domain) and 100 ng GAL4 upstream activation sequence driven luciferase (GAL4-Luc) reporter gene that is capable of binding to any protein fused to GAL4-DNA binding domain (in this case GAL-PPARα) and 100 ng Green fluorescence expressing plasmid (GFP) that was used as an internal control, using lipofectamine LTX transfection reagent (Invitrogen) according to manufacturers' instructions. […] The cells were then lysed and luciferase activity was measured in a Promega GloMax luminometer using steady Glo luciferase assay kit (Promega) according to manufacturers' instructions; and GFP fluorescence was measured in a fluorimeter (Polarstar Galaxy, BMG Labtech). […]

O=C1c2c(cc(O)c([C@@H]3O[C@H](CO)[C@@H](O)[C@H](O)[C@H]3O)c2O)O[C@@H](c2ccc(O)c(O)c2)[C@@H]1O [ULMA, (2S,3S)-(+)-3′,4′,5,7-tetrahydroxydihydroflavonol-6-C-β-D-glucopyranoside] was tested. Which “displacement of 125I-adiponectin binding by cold ULMA” value (AdipoRs) did it give?
Its value is “dose-dependently replaced 125I-adiponectin binding”.

What about the “Dex-caused increase of heart/body weight ratio” value (wistar rats; Dex + ULMA) of the same molecule?
Its value is “significantly alleviated this increase”.

What about the “heart weight/body weight ratio in control animals” value (wistar rats; ULMA alone) of the same molecule?
The value was “did not change”.

And the “potency in enhancing PPARα ligand activity, comparison” value (GAL-PPARα; 100 nM ULMA vs 1 μg/ml globular adiponectin, with 100 pM GW-7647)?
The value was “more potent than globular adiponectin”.

And the “enhancement of GW-7647 induced luciferase activity (PPARα ligand activity)” value (GAL-PPARα; co-treatment with 100 pM GW-7647, 100 nM ULMA or 1 μg/ml globular adiponectin, 6 hours)?
The value was “further enhanced”.
